The record followed here is patent publication US11834432B2, “Substituted amino six-membered nitric heterocyclic ring compound and preparation and use thereof” (SHANGHAI INSTITUTE OF MATERIA MEDICA, CHINESE ACADEMY OF …, priority 2016, dated 2023).

Each structure is given as a SMILES string. Where only a bound is given, the exact number is not on record here.

The target of data set [1] is FGFR1 kinase domain recombinant protein (Homo sapiens (Human), UniProt P11362). Description: Inhibition of receptor tyrosine kinase FGFR1 activity (ELISA). The data set is classed as biochemical. The settings on record: for inhibition at 0.1 µM: 1 h, read-out: Inhibition ratio (%) @ 0.1 μM. As for the experimental part:
1. Preliminary Evaluation Inhibition on Receptor Tyrosine Kinase FGFR1 Activity of Compound
1. […] The liquid from the well was discarded. The plate was washed for three times with T-PBS (0.1% Tween-20 in potassium-free PBS, 200 μL/well), 5 minutes for each time. The elisa plate was dried in 37° C. dryer for 1-2 hours.
2. 49 μL of ATP solution diluted in reaction buffer (50 mM HEPES pH 7.4, 50 mM MgCl2, 0.5 mM MnCl2, 0.2 mM Na3VO4, 1 mM DTT) was added into each well, and 1 μL of the test compound was added to each well, and then 50 μL of FGFR1 kinase domain recombinant protein diluted in reaction buffer was added to initiate the reaction, and two control wells without ATP were required for each experiment. The reaction was performed on a Shaker (100 rpm) at 37° C. for 1 hour. The liquid from the well was discarded, and the plate was washed with T-PBS for three times.
3. The antibody PY99 dilution (antibody diluted 1:500 in T-PBS with BSA 5 mg/mL) was added at 100 μL/well, and shaken for 0.5 hours on a 37° C. shaker. The liquid from the well was discarded, and the plate was washed with T-PBS for three times.
4. The horseradish peroxidase-labeled goat anti-mouse second antibody dilution (antibody diluted 1:2000 in T-PBS with BSA 5 mg/mL) was added at 100 μL/well, and shaken for 0.5 hours on a 37° C. shaker. The liquid from the well was discarded, and the plate was washed with T-PBS for three times.
5. 2 mg/mL OPD coloration solution (diluted with 0.1 M citric acid-sodium citrate buffer containing 0.03% H2O2 (pH=5.4)) was added at 100 μL/well, and reacted for 1-10 minutes at 25° C. in darkness.
6. The reaction was quenched with 50 μL/well of 2M H2SO4, and the plate was read using a tunable microplate microplate reader VERSAmax at 490 nm.
(§1) The IC50 values were obtained by four-parameter regression analysis using the software supplied with the microplate reader.
A general note: ELISA stands for enzyme-linked immunosorbent assay.

The subject of the next data set is SNU16 cells. Description: Inhibition of proliferation of SNU16 cells (CCK-8). It counts as cell-based. The settings on record: Homo sapiens, SNU-16, 72 h; for inhibition at 0.01 µM: 10 nM; for inhibition at 0.01 µM / inhibition at 0.1 µM / inhibition at 1 µM: 72 h, read-out: Inhibition ratio (%); for inhibition at 0.1 µM: 100 nM; for inhibition at 1 µM: 1000 nM. The method, then:
The inhibitory effect on proliferation of SNU16 cells of a compound was examined by CCK-8 Cell Counting Kit (Dojindo). The steps are as follows: SNUI 6 cells at Logarithmic growth phase were seeded in a 96-well culture plate at appropriate density, 90 ul for each well. After cultured overnight, different concentrations of drugs were added and treated for 72 h, while solvent control well was set (negative control). After 72 h, the influence of the compound on the proliferation of cells was observed by CCK-8 cell counting kit (Dojindo). 10 μL of CCK-8 reagent was added to each well. After incubated for 2-4 hours in a 37° C. incubator, the plate was read with SpectraMax 190 microplate reader at wavelength 450 nm.
as §1

The test system of data set [2] is human lung cancer NCI-H1581 subcutaneously transplanted tumor. Put plainly: Growth of subcutaneously transplanted tumor in human lung cancer NCI-H1581 nude mice.
Protocol: The cell strain was inoculated in the right axilla of the nude mice, and the amount of cells inoculated was 5×10^6/mouse to form transplanted tumor, which was directly inoculated and used.
The tumor tissue in the prosperous growth period was cut into 1.5 mm^3, and inoculated subcutaneously in the right axilla of the nude mice under aseptic conditions. The diameter of the transplanted tumor in the nude mice was measured with a vernier caliper, and the animals were randomly grouped when the average volume of tumors was about 150-160 mm^3. […] The solvent control group was given an equal amount of water for injection. The diameter of the transplanted tumor was measured twice a week during the entire experiment, and the body weight of the mice was also weighed. The calculation formula of tumor volume (TV) is: TV=1/2×a×b^2, where a and b respectively represent the length and width of the tumor. The relative tumor volume (RTV) was calculated based on the measured results and the formula was: RTV=Vt/V0, where V0 is the tumor volume measured at grouping and dosing (d0), and Vt is the tumor volume at each measurement.
In data set [3] the test system is human gastric cancer SNU-16 subcutaneously transplanted tumor. Put plainly: Growth of subcutaneously transplanted tumor in human gastric cancer SNU-16 nude mice. The data set is classed as in vivo.
For data set [4] the test system is unchanged. Described as above. The data set is classed as in vivo. As for the experimental part: The human gastric cancer SNU-16 cell strain was preserved in our laboratory.
S10 groups (30 mg/kg and 10 mg/kg) were orally administered once a day for 21 days; AZD4547 group (10 mg/kg) was administered orally once a day for 21 days; solvent control group was given the same amount of water for injection.
This is another data set of the same source.

FGFR1 kinase domain recombinant protein, sequence (P11362 478-767): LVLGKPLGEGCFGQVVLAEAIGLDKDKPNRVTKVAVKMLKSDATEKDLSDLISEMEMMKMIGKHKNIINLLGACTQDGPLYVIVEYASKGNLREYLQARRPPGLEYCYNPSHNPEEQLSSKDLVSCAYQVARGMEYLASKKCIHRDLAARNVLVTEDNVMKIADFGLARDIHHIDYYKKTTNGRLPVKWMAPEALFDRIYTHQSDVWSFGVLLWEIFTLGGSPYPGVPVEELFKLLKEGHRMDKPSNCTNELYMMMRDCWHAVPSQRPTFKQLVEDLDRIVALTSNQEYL

Regarding `CNC(=O)c1cccc2cc(Oc3ccnc(NC(=O)c4ccc(N5C[C@@H](C)N[C@@H](C)C5)cc4F)c3)ccc12` [Compound S13], in data set [1], the IC50 (commonly the concentration that gives 50% inhibition) is over 1000 nM and the inhibition at 0.1 µM amounted to 23%.
On the same counts, the results for `CNC(=O)c1cccc2cc(Oc3ccnc(NC(=O)c4csc(N5CCN(C)CC5)n4)c3)ccc12` [Compound S17] are under 100 nM and 59%.
Consider `CNC(=O)c1cccc2cc(Oc3ccnc(NC(=O)c4ccc(N5CCOCC5)cc4)c3)ccc12` [Compound S7], for which, in the data set on SNU16 cells, the inhibition at 0.01 µM was 30.1%, the inhibition at 0.1 µM worked out at 53.3% and the inhibition at 1 µM was 60.5%. Further, in data set [1], the IC50 is under 10 nM and the inhibition at 0.1 µM was 91%.
In the case of `CNC(=O)c1cccc2cc(Oc3ccnc(NC(=O)c4ccc(N5C[C@@H](C)N[C@@H](C)C5)cc4C)c3)ccc12` [Compound S15], in data set [1], the 50% inhibitory concentration (IC50) is under 100 nM and the inhibition at 0.1 µM is 71%.
`CNC(=O)c1cccc2cc(Oc3ccnc(NC(=O)c4ccc(OCCN5CC(F)(F)C5)cc4)c3)ccc12` [Compound S2]: in data set [1], the IC50 was under 100 nM and the inhibition at 0.1 µM turned out to be 80%.
For the molecule `CNC(=O)c1cccc2cc(Oc3ccnc(NC(=O)c4ccc(C5CCNCC5)cc4)c3)ccc12` [Compound S6], in the data set on SNU16 cells, the midpoint of inhibition, the IC50, lay at 15.9 nM; the inhibition at 0.01 µM was found to be 45.1%; the inhibition at 0.1 µM came to 63.5%; the inhibition at 1 µM turned out to be 59.6%. In data set [1], the concentration for half-maximal inhibition (IC50) is under 10 nM and the inhibition at 0.1 µM was 84%.
Regarding `CNC(=O)c1cccc2cc(Oc3ccnc(NC(=O)c4ccc(OCCN5CCCC5)cc4)c3)ccc12` [Compound S4], in the data set on SNU16 cells, the concentration for half-maximal inhibition (IC50) was determined as 29.2 nM, the inhibition at 0.01 µM turned out to be 55.3%, the inhibition at 0.1 µM stood at 61% and the inhibition at 1 µM turned out to be 59%. In data set [1], the half-maximal inhibitory concentration (IC50) is under 10 nM and the inhibition at 0.1 µM is 74%.
Consider `CNC(=O)c1cccc2cc(Oc3ccnc(NC(=O)c4ccc(N5CCN(C)CC5)cc4)c3)ccc12` [Compound S5], for which, in the data set with SNU16 cells, half-maximal inhibition (IC50) was put at 13.8 nM, the inhibition at 0.01 µM worked out at 60.4%, the inhibition at 0.1 µM was found to be 60.1% and the inhibition at 1 µM stood at 57.8%. In data set [1], the inhibition at 0.1 µM was 87%.
Consider `CNC(=O)c1cccc2cc(Oc3ccnc(NC(=O)c4ccc(N5C[C@@H](C)N[C@@H](C)C5)cc4OC)c3)ccc12` [Compound S14], for which, in data set [1], the 50% inhibitory concentration (IC50) was under 1000 nM and the inhibition at 0.1 µM is 40%.
For `CNC(=O)n1ccc2cc(Oc3ccnc(NC(=O)c4ccc(C5CCN(CCO)CC5)cc4)c3)c(OCCOC)cc21` [Compound E7090, reference compound], the “Relative tumor proliferation rate T/C (%)” value in data set [2] (6.25 mg/Kg) is 46%; in data set [2] (12.5 mg/Kg), 21%; in data set [2] (25 mg/Kg) it was 13%; in data set [2] (50 mg/Kg), 8%; in data set [3] (6.25 mg/Kg) it was 49%; in data set [3] (25 mg/Kg), 17%. For the same molecule, the “Relative tumor proliferation rate T/C (%)” value in data set [3] (50 mg/Kg) came out at 18%; in data set [4] (12.5 mg/Kg) it was 26%.
With `COC(=O)c1cccc2cc(Oc3ccnc(NC(=O)c4ccc(N5C[C@@H](C)N[C@@H](C)C5)cc4)c3)ccc12` [Compound S24], in data set [1], the IC50 was under 10 nM and the inhibition at 0.1 µM stood at 87%.
Regarding `CNC(=O)c1cccc2cc(Oc3ccnc(NC(=O)c4ccc(N5CC(C)OC(C)C5)cc4)c3)ccc12` (centres unmarked) [Compound S8], in the data set with SNU16 cells, the inhibition at 0.01 µM is 23.2%, the inhibition at 0.1 µM is 36.3% and the inhibition at 1 µM is 48.1%. In addition, in data set [1], the IC50 is under 10 nM and the inhibition at 0.1 µM stood at 93%.
As for `CNC(=O)c1cccc2cc(Oc3ccnc(NC(=O)c4cnc(N5C[C@@H](C)N[C@@H](C)C5)nc4)c3)ccc12` [Compound S16], in the data set with SNU16 cells, the inhibition at 0.01 µM was 26.4%, the inhibition at 0.1 µM came out at 55.3% and the inhibition at 1 µM was found to be 61.6%. Also, in data set [1], the IC50 is under 100 nM and the inhibition at 0.1 µM turned out to be 58%.
On to `CNC(=O)c1cccc2cc(Oc3ccnc(NC(=O)c4ccc(N5C[C@@H](C)N[C@@H](C)C5)cc4)n3)ccc12` [Compound S20], for which, in data set [1], the 50% inhibitory concentration (IC50) was under 10 nM and the inhibition at 0.1 µM turned out to be 94%.
The matching figures for `CNC(=O)c1cccc2cc(Oc3ccnc(NC(=O)c4ccc(N5CCN(CCO)CC5)cc4)c3)ccc12` [Compound S11]: under 10 nM and 89%.
For the molecule `CNC(=O)c1cccc2cc(Oc3ccnc(NC(=O)c4coc(N5CCN(C)CC5)n4)c3)ccc12` [Compound S18], in data set [1], the IC50 is under 100 nM and the inhibition at 0.1 µM was determined as 65%.
On to `CNC(=O)c1cccc2cc(Oc3ccnc(NC(=O)c4ccc(OCCN5CC(F)C5)cc4)c3)ccc12` [Compound S1], for which, in data set [1], the concentration for half-maximal inhibition (IC50) was under 100 nM and the inhibition at 0.1 µM is 72%.
Consider `CNC(=O)c1cccc2cc(Oc3ccnc(NC(=O)c4cnn(CCO)c4)c3)ccc12` [Compound S19], for which, in data set [1], the IC50 was under 10 nM and the inhibition at 0.1 µM came out at 86%.
In the case of `CNC(=O)c1cccc2cc(Oc3ccnc(NC(=O)c4ccc(OCC5(N)CC5)cc4)c3)ccc12` [Compound S3], in data set [1], the half-inhibitory concentration (IC50) is under 10 nM and the inhibition at 0.1 µM was 90%.
Take `CNC(=O)c1cccc2cc(Oc3ccnc(NC(=O)c4ccc(NCC5(O)CCOCC5)cc4)c3)ccc12` [Compound S23]: in data set [1], the IC50 was under 10 nM and the inhibition at 0.1 µM is 86%.
In the case of `CNC(=O)c1cccc2cc(Oc3ccnc(NC(=O)c4ccc(N5CCNC(C)C5)cc4)c3)ccc12` (centres unmarked) [Compound S9], in the data set on SNU16 cells, the IC50 was determined as 13.8 nM, the inhibition at 0.01 µM was found to be 70.9%, the inhibition at 0.1 µM was determined as 73.2% and the inhibition at 1 µM came to 73.3%. Further, in data set [1], the half-maximal inhibitory concentration (IC50) was under 10 nM and the inhibition at 0.1 µM stood at 95%.
On to `CNC(=O)c1cccc2cc(Oc3ccnc(NC(=O)c4ccc(CN5CCN(C)CC5)c(C(F)(F)F)c4)c3)ccc12` [Compound S12], for which, in data set [1], the IC50 was under 1000 nM and the inhibition at 0.1 µM was determined as 44%.
In the case of `COc1cc(CCc2cc(NC(=O)c3ccc(N4CC(C)NC(C)C4)cc3)n[nH]2)cc(OC)c1` (centres unmarked) [AZD4547, reference compound], in data set [4] (10 mg/kg po qd/21, d0), the “Body weight (g) d0” value is 20.1 g and the “TV (mm^3, mean ± SD) d0” value is 103 ± 18 mm^3. Also, in data set [4] (10 mg/kg po qd/21, d21), the “Body weight (g) d21” value is reported as 22.4 g; the “RTV (mean ± SD)” value is 8.21 ± 3.91; the “T/C (%)” value came to 59.80%; the “TV (mm^3, mean ± SD) d21” value was found to be 790 ± 247 mm^3.
